Values quoted from earlier work, collected in US7205435B2 (priority 2001, dated 2007).

System: mouse phrenic nerve
Conditions: in vivo

## CC(C)C[C@H](NP(=O)(O)O[C@@H]1O[C@@H](C)[C@H](O)[C@@H](O)[C@H]1O)C(=O)N[C@@H](Cc1c[nH]c2ccccc12)C(=O)O [phosphoramidon]
  effective dose: 0.2 mM
